As usually defined, the pIC50 is the IC50 on a negative log10 scale, so that one unit is a factor of ten.

SMILES strings stand for the structures. pIC50: −log10 of the molar value.

Here are results for 21 molecules from patent US11524966B1 (Valo Early Discovery, Inc., priority 2017, dated 2022).

In the experiment the target is T1, USP28 (His-tagged USP28-FL-mammalian) (Homo sapiens, UniProt Q96RU2).
T1 construct: Expression of USP28 (1-1077)-TEV-6*His (pTT5 vector); made in house; host or cells: Expi293f cells (pTT5 vector)
T1 sequence (Q96RU2 1-1077): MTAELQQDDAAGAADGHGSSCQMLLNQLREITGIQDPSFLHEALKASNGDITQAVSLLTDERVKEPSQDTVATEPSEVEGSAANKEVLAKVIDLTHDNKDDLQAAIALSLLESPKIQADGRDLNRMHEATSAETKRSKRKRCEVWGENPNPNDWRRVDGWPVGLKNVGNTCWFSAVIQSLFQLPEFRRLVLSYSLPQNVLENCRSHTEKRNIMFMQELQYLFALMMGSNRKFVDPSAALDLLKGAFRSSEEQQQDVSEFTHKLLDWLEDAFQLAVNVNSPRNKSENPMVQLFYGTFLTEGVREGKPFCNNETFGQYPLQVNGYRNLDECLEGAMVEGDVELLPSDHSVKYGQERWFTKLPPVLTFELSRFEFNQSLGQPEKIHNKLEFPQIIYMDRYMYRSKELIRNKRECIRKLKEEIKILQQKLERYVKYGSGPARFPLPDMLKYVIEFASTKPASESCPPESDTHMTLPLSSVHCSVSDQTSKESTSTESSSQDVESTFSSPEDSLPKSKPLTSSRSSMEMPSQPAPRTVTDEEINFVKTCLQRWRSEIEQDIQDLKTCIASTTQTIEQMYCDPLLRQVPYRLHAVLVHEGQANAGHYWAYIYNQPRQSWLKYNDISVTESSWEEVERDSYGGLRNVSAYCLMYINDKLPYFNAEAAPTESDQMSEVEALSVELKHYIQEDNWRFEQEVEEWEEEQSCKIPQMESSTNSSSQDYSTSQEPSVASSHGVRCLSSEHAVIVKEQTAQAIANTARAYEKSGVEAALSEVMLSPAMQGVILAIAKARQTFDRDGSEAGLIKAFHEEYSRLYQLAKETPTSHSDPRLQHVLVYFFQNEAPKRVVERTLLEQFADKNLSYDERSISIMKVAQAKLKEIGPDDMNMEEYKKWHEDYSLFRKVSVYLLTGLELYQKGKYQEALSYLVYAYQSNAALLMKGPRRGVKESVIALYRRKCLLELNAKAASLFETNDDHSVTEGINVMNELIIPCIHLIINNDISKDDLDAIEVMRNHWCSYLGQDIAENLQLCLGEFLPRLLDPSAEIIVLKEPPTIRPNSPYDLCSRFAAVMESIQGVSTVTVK
As to the kind of experiment: Ubiquitin-Rhodamine 110 Assay for USP28 Activity, Example A-1(a). The class given is biochemical. As to conditions: Ubiquitin-Rhodamine 110 assay, Example A-1(a); read-out: USP28 A-1(a) IC50 range. The gist of the method: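 Full-length His-tagged human USP28 (1-1077, Expi293f-expressed), […], with 25 nM Ub-Rh110 (<<Km) in pH 8.0 Tris buffer with BME, BGG, Triton X-100. 10-point dilutions (25 μM-1.3 nM), 45 min at room temperature, citric acid stop, fluorescence 485/535 nm; IC50 by 4-parameter fit.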
Take `O=C(N[C@@H]1CCc2cc(N3CC4CCC(C3)N4)cc(F)c2C1)c1cnc2c(c1)[C@H]1C[C@H]1CN2` [Example 194, (6aR,7aS)-N-[(2R)-6-{3,8-diazabicyclo[3.2.1]octan-3-yl}-8-fluoro-1,2,3,4-tetrahydronaphthalen-2-yl]-5H,6H,6aH,7H,7aH-cyclopropa[c]1,8-naphthyridine-2-carboxamide]: the pIC50 was 5.70 to 6.70.

`Cc1ccc2c(N)c(C(=O)N[C@H]3COc4cc(N5CCC[C@@H]6CNC[C@@H]65)ccc4C3)sc2n1` [Example 242, N-[(3R)-7-[(4aR,7aR)-octahydro-1H-pyrrolo[3,4-b]pyridin-1-yl]-3 ,4-dihydro-2H-1-benzopyran-3-yl]-3-amino-6-methylthieno[2,3-b]pyridine-2-carboxamide]: the pIC50 is 7.30 to 9.00.

With `Cc1cc(C)c2c(N)c(C(=O)N[C@H]3CCc4nc(N5CC[C@H]6CNC[C@H]65)ccc4C3)sc2n1` [Example 218, N-[(6S)-2-[(3aS 6aS)-octahydropyrrolo[2,3-c]pyrrol-1-yl]-5,6,7,8-tetrahydroquinolin-6-yl]-3-amino-4,6-dimethylthieno[2,3-b]pyridine-2-carboxamide], the pIC50 is 6.70 to 7.30.

Turning to `N#Cc1c(N2CC3CCC(C2)N3)cc(F)c2c1OC[C@H](NC(=O)c1cnc3c(c1)[C@H]1C[C@H]1CN3)C2` [Example 229, (6aR,7aS)-N-[(3R)-8-cyano-7-{3,8-diazabicyclo[3.2.1]octan-3-yl}-5-fluoro-3,4-dihydro-2H-1-benzopyran-3-yl]-5H,6H,6aH,7H,7aH-cyclopropa[c]1,8-naphthyridine-2-carboxamide], the pIC50 was 5.70 to 6.70.

Regarding `Cc1ccc2c(N)c(C(=O)N[C@H]3COc4cc(N5CC6CCC[C@]6(N)C5)ccc4C3)sc2n1` (stereo partly drawn) [Example 249, N-[(3R)-7-[(3aR)-3a-amino-octahydrocyclopenta[c]pyrrol-2-yl]-3,4-dihydro-2H-1-benzopyran-3-yl]-3-amino-6-methylthieno[2,3-b]pyridine-2-carboxamide], the pIC50 was 7.30 to 9.00.

On to `Cc1ccc2c(N)c(C(=O)N[C@H]3COc4cc(N5C[C@@H](N)C(F)(F)C5)ccc4C3)sc2n1` [Example 257, 3-amino-N-[(3R)-7-[(4R)-4-amino-3,3-difluoropyrrolidin-1-yl]-3,4-dihydro-2H-1-benzopyran-3-yl]-6-methylthieno[2,3-b]pyridine-2-carboxamide], for which the pIC50 was 7.30 to 9.00.

With `Cc1ccc2c(N)c(C(=O)N[C@H]3COc4cc(N5CC[C@@H]6CC[C@@H](N)C[C@@H]65)ccc4C3)sc2n1` [Example 233, N-[(3R)-7-[(3aS,6R,7aS)-6-amino-octahydro-1H-indol-1-yl]-3,4-dihydro-2H-1-benzopyran-3-yl]-3-amino-6-methylthieno[2,3-b]pyridine-2-carboxamide], the pIC50 is 7.30 to 9.00.

In the case of `CCO[C@H]1CN(c2ccc3c(n2)CC[C@H](NC(=O)c2sc4nc(C)ccc4c2N)C3)C[C@H]1N` [Example 255, 3-amino-N-[(6S)-2-[(3R,4S)-3-amino-4-ethoxypyrrolidin-1-yl]-5,6,7,8-tetrahydroquinolin-6-yl]-6-methylthieno[2,3-b]pyridine-2-carboxamide], the pIC50 was 6.70 to 7.30.

Turning to `N#Cc1c(N2CC3CCC(C2)N3)cc(F)c2c1CC[C@H](NC(=O)c1cnc3c(c1)[C@@H]1C[C@@H]1CN3)C2` [Example 195, (6aS,7aR)-N-[(2S)-5-cyano-6-{3,8-diazabicyclo[3.2.1]octan-3-yl}-8-fluoro-1,2,3,4-tetrahydronaphthalen-2-yl]-5H,6H,6aH,7H,7aH-cyclopropa[c]1,8-naphthyridine-2-carboxamide], the pIC50 is 7.30 to 9.00.

For the molecule `CO[C@H]1CN(c2cc3c(c(F)c2C#N)C[C@@H](NC(=O)c2sc4nc(C)ccc4c2N)CO3)C[C@@H]1N` [Example 200], the pIC50 is 7.30 to 9.00.

As to `O=C(N[C@H]1CCc2cc(N3CC4CCC(C3)N4)cc(F)c2C1)c1cnc2c(c1)[C@H]1C[C@H]1CN2` [Example 192, (6aR,7aS)-N-[(2S)-6-{3,8-diazabicyclo[3.2.1]octan-3-yl}-8-fluoro-1,2,3,4-tetrahydronaphthalen-2-yl]-5H,6H,6aH,7H,7aH-cyclopropa[c]1,8-naphthyridine-2-carboxamide], the pIC50 was 6.70 to 7.30.

On to `Cc1ccc2c(N)c(C(=O)N[C@H]3COc4cc(N5C[C@H](N)CC[C@@H]5C(F)(F)F)ccc4C3)sc2n1` [Example 244, 3-amino-N-[(3R)-7-[(2R,5R)-5-amino-2-(trifluoromethyl)piperidin-1-yl]-3,4-dihydro-2H-1-benzopyran-3-yl]-6-methylthieno[2,3-b]pyridine-2-carboxamide], for which the pIC50 was 7.30 to 9.00.

Take `Cc1cc(C)c2c(N)c(C(=O)N[C@H]3COc4cc(N5CC[C@@H]6CNC[C@@H]65)cc(F)c4C3)sc2n1` (single isomer, unassigned) [Example 223]: the pIC50 is 7.30 to 9.00.

Regarding `CO[C@H]1CN(c2ccc3c(n2)CC[C@H](NC(=O)c2sc4nc(C)ccc4c2N)C3)C[C@]1(C)N` [Example 239, 3-amino-N-[(6S)-2-[(3S,4S)-3-amino-4-methoxy-3-methylpyrrolidin-1-yl]-5,6,7,8-tetrahydroquinolin-6-yl]-6-methylthieno[2,3-b]pyridine-2-carboxamide], the pIC50 is 5.70 to 6.70.

Turning to `Cc1ccc2c(N)c(C(=O)N[C@H]3COc4cc(N5CC6CCC[C@@]6(N)C5)ccc4C3)sc2n1` (stereo partly drawn) [Example 248, N-[(3R)-7-[(3aS)-3a-amino-octahydrocyclopenta[c]pyrrol-2-yl]-3,4-dihydro-2H-1-benzopyran-3-yl]-3-amino-6-methylthieno[2,3-b]pyridine-2-carboxamide], the pIC50 was 7.30 to 9.00.

`Cc1ccc2c(N)c(C(=O)N[C@H]3CCc4nc(N5CC[C@H]6CNC[C@H]65)ccc4C3)sc2n1` [Example 216, N-[(6S)-2-[(3aS,6aS)-octahydropyrrolo[2,3-c]pyrrol-1-yl}-5,6,7,8-tetrahydroquinolin-6-yl]-3-amino-6-methylthieno[2,3-b]pyridine-2-carboxamide]: the pIC50 was 7.30 to 9.00.

On to `Cc1ccc2c(N)c(C(=O)N[C@H]3COc4cc(N5C[C@@H]6NCCC(F)(F)[C@@H]6C5)ccc4C3)sc2n1` [Example 237, N-[(3R)-7-[(4aR,7aR)-4,4-difluoro-octahydro-1H-pyrrolo[3,4-b]pyridin-6-yl]-3,4-dihydro-2H-1-benzopyran-3-yl]-3-amino-6-methylthieno[2,3-b]pyridine-2-carboxamide], for which the pIC50 was 7.30 to 9.00.

Take `CO[C@H]1CN(c2ccc3c(c2)CC[C@H](NC(=O)c2cnc4c(c2)[C@@H]2C[C@@H]2CN4)C3)C[C@@H]1N` [Example 189, (6aS,7aR)-N-[(2S)-6-[(3S,4S)-3-amino-4-methoxypyrrolidin-1-yl]-1,2,3,4-tetrahydronaphthalen-2-yl]-5H,6H,6aH,7H,7aH-cyclopropa[c]1,8-naphthyridine-2-carboxamide]: the pIC50 is 5.70 to 6.70.

For the molecule `N#Cc1c(N2CC3CCC(C2)N3)cc(F)c2c1CC[C@H](NC(=O)c1cnc3c(c1)[C@H]1C[C@H]1CN3)C2` [Example 196, (6aR,7aS)-N-[(2S)-5-cyano-6-{3,8-diazabicyclo[3.2.1]octan-3-yl}-8-fluoro-1,2,3,4-tetrahydronaphthalen-2-yl]-5H,6H,6aH,7H,7aH-cyclopropa[c]1,8-naphthyridine-2-carboxamide], the pIC50 is < 5.70.

For the molecule `N#Cc1c(N2CC3CCC(C2)N3)cc(F)c2c1CC[C@@H](NC(=O)c1cnc3c(c1)[C@@H]1C[C@@H]1CN3)C2` [Example 197, (6aS,7aR)-N-[(2R)-5-cyano-6-{3,8-diazabicyclo[3.2.1]octan-3-yl}-8-fluoro-1,2,3,4-tetrahydronaphthalen-2-yl]-5H,6H,6aH,7H,7aH-cyclopropa[c]1,8-naphthyridine-2-carboxamide], the pIC50 is < 5.70.

On to `Cc1nc2sc(C(=O)N[C@H]3CCc4nc(N5CCNCC5)ccc4C3)c(N)c2cc1F` [Example 204, 3-amino-5-fluoro-6-methyl-N-[(6S)-2-(piperazin-1-yl)-5,6,7,8-tetrahydroquinolin-6-yl]thieno[2,3-b]pyridine-2-carboxamide], for which the pIC50 is 7.30 to 9.00.
